Measurements published in patent publication US9617244B2, “Antibacterial quinoline derivatives” (JANSSEN PHARMACEUTICA NV, priority 2012, dated 2017).
In brackets after ≈: the same amount, converted by molar mass.

Key:
[1] = test system: Staphylococcus aureus (ATCC29213); test: In-vitro anti-bacterial activity, microtitre plate assay, IC90 determination (non-mycobacterial strains); type: cell-based; details: 90% inhibitory concentration for bacterial growth, resazurin fluorescence; for IC90 STA B29213: 24 hours; for IC90: Staphylococcus aureus, ATCC29213, 24 h, read-out: IC90 STA B29213
Summary of the method: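 Growth inhibition measured fluorometrically with resazurin (530/590 nm) after overnight 37 °C incubation under normal atmosphere. Bacteria added at roughly 100 TCID50 per well in Mueller-Hinton broth to five-fold compound dilution series; IC90 reported in μg/ml.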

[2] = test system: Mycobacterium smegmatis (ATCC607); test: In-vitro anti-bacterial activity against strain M. Smegmatis ATCC607; type: cell-based; details: 90% inhibitory concentration for bacterial growth, Alamar Blue fluorescence; for IC90 MSM 607: 48 hours; for IC90: Mycolicibacterium smegmatis, ATCC607, 48 h, read-out: IC90 MSM 607
Summary of the method: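 IC90 (μg/ml) derived from Alamar Blue fluorescence (530/590 nm) after 48 h growth at 37 °C under 5% CO2. About 250 CFU per well in Mueller-Hinton broth faced five-fold serial compound dilutions in BSA-containing wells.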

Row | Structure (SMILES) | IC90 STA B29213 [1] [µg/mL] | IC90 MSM 607 [2] [µg/mL] | melting point [°C] | IC90 [2] [µg/mL] | IC90 [1] [µg/mL]
1 | COc1nc2ccc(S(C)(=O)=O)cc2cc1C(c1ccccc1)C1(O)CCNC(c2ccc(F)cc2C)C1 (stereo not drawn) [Compound 185] | 13.43 (≈ 25.1 µM) | 8.47 (≈ 15.8 µM) | 162 |  | 
2 | COc1nc2ccc(S(C)(=O)=O)cc2cc1C(c1ccccc1)C1(O)CCNC(c2ccc(F)cc2C)C1 (stereo not drawn) [Compound 186] | 9.51 (≈ 17.8 µM) | 8.47 (≈ 15.8 µM) | 166 |  | 
3 | COc1nc2ccc(S(C)(=O)=O)cc2cc1C(c1ccccc1)C1(O)CCNC(c2ccc(F)cc2C)C1 (stereo not drawn) [Compound 187] | >13.43 | 13.43 (≈ 25.1 µM) | 167 |  | 
4 | COc1nc2ccc(SC)cc2cc1C(c1ccc(Cl)cc1)C1(O)CCNC(Cc2ccc(F)c(F)c2)C1 (stereo not drawn) [Compound 189] | 1.76 (≈ 3.17 µM) | 2.78 (≈ 5.01 µM) | 160 |  | 
5 | COc1nc2ccc(SC)cc2cc1C(c1ccc(Cl)cc1)C1(O)CCNC(Cc2ccc(F)c(F)c2)C1 (stereo not drawn) [Compound 191] | 3.50 (≈ 6.31 µM) | 3.50 (≈ 6.31 µM) | 162 |  | 
6 | COc1nc2ccc(Br)cc2cc1C(c1ccccc1)C1(O)CCNC(c2ccc(F)cc2C)C1 (stereo not drawn) [Compound 193] | 5.35 (≈ 9.99 µM) | 5.35 (≈ 9.99 µM) | 147 |  | 
7 | COc1nc2ccc(Br)cc2cc1C(c1ccccc1)C1(O)CCNC(c2ccc(F)cc2C)C1 (stereo not drawn) [Compound 194] | 1.69 (≈ 3.16 µM) | 2.68 (≈ 5.01 µM) | 149 |  | 
8 | COc1nc2ccc(SC)cc2cc1C(c1ccccc1)C1(O)CCNC(c2ccc(F)cc2C)C1 (stereo not drawn) [Compound 195] | 3.17 (≈ 6.31 µM) | 2.00 (≈ 3.98 µM) | 153 |  | 
9 | COc1nc2ccc(SC)cc2cc1C(c1ccccc1)C1(O)CCNC(c2ccc(F)cc2C)C1 (stereo not drawn) [Compound 197] | 1.59 (≈ 3.16 µM) | 1.59 (≈ 3.16 µM) | 138 |  | 
10 | COc1nc2ccc(SC)cc2cc1C(c1ccccc1)C1(O)CCNC(c2ccc(F)cc2C)C1 (stereo not drawn) [Compound 198] | 3.17 (≈ 6.31 µM) | 3.17 (≈ 6.31 µM) | 187 |  | 
11 | COc1nc2ccc(S(C)(=O)=O)cc2cc1C(c1ccc(Cl)cc1)C1(O)CCNC(c2ccc(F)cc2C)C1 (stereo not drawn) [Compound 199] | 7.16 (≈ 12.6 µM) | 7.16 (≈ 12.6 µM) | 192 |  | 
12 | COc1nc2ccc(S(C)(=O)=O)cc2cc1C(c1ccc(Cl)cc1)C1(O)CCNC(c2ccc(F)cc2C)C1 (stereo not drawn) [Compound 200] | 5.69 (≈ 10 µM) | 5.69 (≈ 10 µM) | 187 |  | 
13 | COc1nc2ccc(S(C)(=O)=O)cc2cc1C(c1ccc(Cl)cc1)C1(O)CCNC(c2ccc(F)cc2C)C1 (stereo not drawn) [Compound 202] | 1.80 (≈ 3.16 µM) | 2.27 (≈ 3.99 µM) | 186 |  | 
14 | CSc1ccc2[nH]c(=O)c(C(c3ccc(Cl)cc3)C3(O)CCNC(Cc4ccc(F)c(F)c4)C3)cc2c1 (stereo not drawn) [Compound 203] | 10.80 (≈ 20 µM) |  | > 250 | 6.81 (≈ 12.6 µM) | 
15 | COc1nc2ccc(S(C)(=O)=O)cc2cc1C(c1ccc(Cl)cc1)C1(O)CCNC(Cc2ccc(F)c(F)c2)C1 (stereo not drawn) [Compound 211] |  |  | 150 | 7.39 (≈ 12.6 µM) | 14.8 (≈ 25.1 µM)
16 | COc1nc2ccc(S(C)(=O)=O)cc2cc1C(c1ccc(Cl)cc1)C1(O)CCNC(c2ccc(F)cc2C)C1 (stereo not drawn) [Compound 216] | 7.16 (≈ 12.6 µM) | 5.69 (≈ 10 µM) | 152 |  | 
17 | COc1nc2ccc(S(C)(=O)=O)cc2cc1C(c1ccc(Cl)cc1)C1(O)CCNC(c2ccc(F)cc2C)C1 (stereo not drawn) [Compound 217] | 1.27 (≈ 2.23 µM) | 0.90 (≈ 1.58 µM) | 169 |  | 
18 | COc1nc2ccc(S(C)(=O)=O)cc2cc1C(c1ccc(Cl)cc1)C1(O)CCNC(c2ccc(F)cc2C)C1 (stereo not drawn) [Compound 218] | 5.69 (≈ 10 µM) | 2.85 (≈ 5.01 µM) | 174 |  | 

Row | Structure (SMILES) | IC90 STA B29213 [1] [µg/mL] | IC90 MSM 607 [2] [µg/mL] | melting point [°C] | IC90 [2] [µg/mL] | IC90 [1] [µg/mL]
19 | COc1nc2ccc(S(C)(=O)=O)cc2cc1C(c1ccc(Cl)cc1)C1(O)CCNC(c2ccc(F)cc2C)C1 (stereo not drawn) [Compound 219] | 3.59 (≈ 6.31 µM) | 1.80 (≈ 3.16 µM) | 156 |  | 
20 | COc1nc2ccc(Br)cc2cc1C(c1ccc(Cl)cc1)C1(O)CCNCC1Cc1cccc(F)c1 (stereo not drawn) [Compound 226] |  | 0.90 (≈ 1.58 µM) | 221 |  | 1.8 (≈ 3.16 µM)
21 | COc1nc2ccc(Br)cc2cc1C(c1ccc(Cl)cc1)C1(O)CCNCC1Cc1cccc(F)c1 (stereo not drawn) [Compound 228] | 1.80 (≈ 3.16 µM) | 2.86 (≈ 5.02 µM) | 196 |  | 
22 | COc1nc2ccc(SC)cc2cc1C(c1ccc(Cl)cc1)C1(O)CCNC(c2ccc(F)cc2C)C1 (stereo not drawn) [Compound 244] | 2.40 (≈ 4.47 µM) | 1.51 (≈ 2.81 µM) | 205 |  | 
23 | COc1nc2ccc(SC)cc2cc1C(c1ccc(Cl)cc1)C1(O)CCNC(c2ccc(F)cc2C)C1 (stereo not drawn) [Compound 245] | 1.91 (≈ 3.56 µM) | 1.07 (≈ 1.99 µM) | 147 |  | 
24 | COc1nc2ccc(CN)cc2cc1[C@@H](c1ccccc1)C1(O)CCNC(Cc2ccccc2)C1 (stereo partly drawn) [Compound 246] |  |  | 100 | > 11.8 | > 11.8
25 | COc1nc2ccc(Br)cc2cc1C(c1ccccc1)C1(O)CCNC(c2ccc(F)cc2C)C1 (stereo not drawn) [Compound 247] | 3.38 (≈ 6.31 µM) | 1.69 (≈ 3.16 µM) | 132 |  | 
26 | COc1nc2ccc(Br)cc2cc1C(c1ccccc1)C1(O)CCNC(c2ccc(F)cc2C)C1 (stereo not drawn) [Compound 248] | 3.38 (≈ 6.31 µM) | 2.68 (≈ 5.01 µM) | 134 |  | 
27 | COc1nc2ccc(Br)cc2cc1C(c1ccccc1)C1(O)CCNC(c2ccc(F)cc2C)C1 (stereo not drawn) [Compound 249] | 1.69 (≈ 3.16 µM) | 1.07 (≈ 2 µM) | 178 |  | 
28 | COc1nc2ccc(Br)cc2cc1C(c1ccccc1)C1(O)CCNC(c2ccc(F)cc2C)C1 (stereo not drawn) [Compound 250] | 1.69 (≈ 3.16 µM) | 1.35 (≈ 2.52 µM) | 125 |  | 
29 | COc1nc2ccc(S(C)(=O)=O)cc2cc1C(c1ccccc1)C1(O)CCNC(c2ccc(F)cc2C)C1 (stereo not drawn) [Compound 251] | 13.43 (≈ 25.1 µM) | 10.67 (≈ 20 µM) | 183 |  | 
30 | COc1nc2ccc(S(C)(=O)=O)cc2cc1C(c1ccccc1)C1(O)CCNC(c2ccc(F)cc2C)C1 (stereo not drawn) [Compound 252] | >13.43 | >13.43 | 152 |  | 
31 | COc1nc2ccc(Br)cc2cc1C(c1ccc(Cl)cc1)C1(O)CCNC(CC2CCCCC2)C1 (stereo not drawn) [Compound 256] | 2.49 (≈ 4.46 µM) | 2.22 (≈ 3.98 µM) | 118 |  | 
32 | COc1nc2ccc(Br)cc2cc1C(c1ccc(Cl)cc1)C1(O)CCNC(CC2CCCCC2)C1 (stereo not drawn) [Compound 257] | 4.97 (≈ 8.91 µM) | 3.14 (≈ 5.63 µM) | 108 |  | 
33 | COc1nc2ccc(Br)cc2cc1C(c1ccc(Cl)cc1)C1(O)CCNC(CC2CCCCC2)C1 (stereo not drawn) [Compound 259] | 1.76 (≈ 3.15 µM) | 1.40 (≈ 2.51 µM) | 168 |  | 
34 | COc1nc2ccc(SC)cc2cc1C(c1ccc(Cl)cc1)C1(O)CCNC(Cc2ccc(F)cc2)C1 (stereo not drawn) [Compound 260] | 3.39 (≈ 6.31 µM) | 3.39 (≈ 6.31 µM) | 104 |  | 
35 | COc1nc2ccc(SC)cc2cc1C(c1ccc(Cl)cc1)C1(O)CCNC(Cc2ccc(F)cc2)C1 (stereo not drawn) [Compound 261] | 1.70 (≈ 3.17 µM) | 1.70 (≈ 3.17 µM) | 122 |  | 
36 | COc1nc2ccc(SC)cc2cc1C(c1ccc(Cl)cc1)C1(O)CCNC(Cc2ccc(F)cc2)C1 (stereo not drawn) [Compound 262] | 7.59 (≈ 14.1 µM) | 3.39 (≈ 6.31 µM) | 94 |  | 
